Common to all, as to assay type: in vivo
Series [1] relates to Arabidopsis thaliana (Col-0). The series can be described thus: Evaluation Example 4: tolerance to high temperature stress, plant mortality. The conditions noted are these: for Environmental stress suppressing rate: high temperature stress Yes. As for the experimental part: EGT (Example 5 and Comparative Example 13) or GB (Comparative Example 12 and Comparative Example 14) was prepared so as to have a concentration shown in Table 4 below. EGT and GB were commercially available products, and pure water was used as a solvent.
In a plastic pot having a diameter of 60 mm and a height of 55 mm, 80 mL of culture soil (manufactured by Hanagokoro Co., Ltd.) was put, and one individual Arabidopsis thaliana (Col-0) was seeded per pot. Plastic deep dishes each having a diameter of 160 mm and a height of 28 mm were prepared, and four pots were respectively placed therein.
They were located in a growth chamber set at room temperature of 22° C., and the light period was 16 hours and the dark period was 8 hours. The light conditions were set such that the light intensity was 5000 lx in the central part under irradiation with the fluorescent lamp. Water supply was conducted from the bottom, and the water level was set at about 5 mm. On the 41st day after seeding, 50 mL of EGT or 50 mL of GB was added, and one day after that, high temperature stress was applied by exposure to an environment of 42° C. for 3 hours.
The surviving plants were counted 12 days after the high temperature stress was applied, and the plant mortality rate was evaluated as an index of physiological disorder. The mortality rate and the environmental stress suppressing rate were calculated according to the following formulas.

For another series, the system named is rapeseed. The series can be described thus: Evaluation Example 9: tolerance to excessive water stress, plant mortality. The note with it: for Environmental stress suppressing rate: excessive water stress Yes. As for the experimental part: EGT (Example 11, Comparative Example 31) or GB (Comparative Examples 30 and 32) was prepared so as to have a concentration shown in Table 9 below. EGT and GB were commercially available products, and pure water was used as a solvent.
5 mL of pure water was added to 9-cm petri dishes on which filter paper was placed, and 12 rapeseed seeds were seeded per petri dish. They were located in a growth chamber set at room temperature of 22° C., and the light period was 16 hours and the dark period was 8 hours. The light conditions were set such that the light intensity was 5000 lx in the central part under irradiation with the fluorescent lamp.
On the sixth day after seeding, pure water in the petri dish was removed, 5 mL of EGT or 5 mL of GB was added to the petri dish, and one day after that, 50 mL of pure water was added to the petri dish to apply excessive water stress.
5 The surviving plants were counted 19 days after the excessive water stress was applied, and the mortality rate of the plants was evaluated as an index of physiological disorder. The mortality rate and the environmental stress suppressing rate were calculated according to the following formulas.

Series [2] relates to Arabidopsis thaliana (Col-0). The series can be described thus: Evaluation Example 12: tolerance to intense light stress, leaf whitening. The note with it: for Leaf whitening rate: test compound 0.1 mM (12.5 mL), intense light stress Yes (LED light, 24 hours); for Environmental stress suppressing rate: test compound 0.1 mM, intense light stress Yes. On the procedure:
EGT and GB were commercially available products, and pure water was used as a solvent. In a plastic pot having a diameter of 60 mm and a height of 55 mm, 90 mL of culture soil (manufactured by Hanagokoro Co., Ltd.) was placed, and 4 individual Arabidopsis thaliana (Col-0) were seeded per pot. They were located in a growth chamber set at room temperature of 22° C., and the light period was 16 hours and the dark period was 8 hours. The light conditions were set such that the light intensity was 5000 lx in the central part under irradiation with the fluorescent lamp. 12.5 mL of EGT or 12.5 mL of GB was added on the 43rd day after seeding, and one day after that, intense light stress was applied by exposure for 24 hours under irradiation of LED light (manufactured by Esbaybulbs Co., Ltd.) with a light intensity set to 2000 μmol/m 2/sec. Whitened leaves of Arabidopsis thaliana subjected to intense light stress were counted, and the leaf whitening rate was evaluated as an index of physiological disorder. The leaf whitening rate and the environmental stress suppressing rate were calculated according to the following formulas. [formula] [formula]

The test system of series [3] is Arabidopsis thaliana (Col-0). The series can be described thus: Evaluation Example 2: tolerance to drying stress, plant mortality. On the procedure:
A commercially available EGT was used, and pure water was used as a solvent.
One individual Arabidopsis thaliana (Col-0) was seeded in a plastic pot having a diameter of 60 mm and a height of 55 mm. Plastic deep dishes each having a diameter of 160 mm and a height of 28 mm were prepared, and six pots were respectively placed therein. As soil, 45 mL of vermiculite, 22.5 mL of granular soil (Kumiai horticultural soil), and 22.5 mL of vermiculite were placed in the pot in this order.
They were located in a growth chamber set at room temperature of 22° C., and the light period was 16 hours and the dark period was 8 hours. The light conditions were set such that the light intensity was 5000 lx in the central part under irradiation with the fluorescent lamp. Water supply was conducted from the bottom, and the water level was set at about 5 mm. EGT in an amount of 50 mL was added on the 22nd day after seeding, and drying stress was applied by stopping water supply for 18 days from 2 days after the addition of EGT.
The number of surviving plants was counted 18 days after the stoppage of water, and the plant mortality rate was evaluated as an index of physiological disorder. The mortality rate and the environmental stress suppressing rate were calculated according to the following formulas.

[4] abbreviates: test compound 0.5 mM (50 mL), high temperature stress Yes (42° C. for 3 hours), 12 days after stress.
Where [5] appears, read: test compound 0.5 mM, high temperature stress No.
Where [6] appears, read: test compound 0.1 mM (5 mL), excessive water stress Yes (50 mL pure water per petri dish), 19 days after stress.
The mark [7] stands for this setting: test compound 0.1 mM, excessive water stress No.

As to `C[N+](C)(C)CC(=O)[O-]` [GB, glycine betaine, reference compound], the “mortality rate due to high temperature stress, result in words” value in series [1] (0.5 mM, high temperature stress) is given as “not suppressed”. In addition, the Mortality rate is on record as 75% in series [1] (setting [4]), 0% in series [1] (setting [5]), 60% with rapeseed (setting [6]) and 0% with rapeseed (setting [7]). The “Environmental stress suppressing rate” value (in series [1] (test compound 0.5 mM); with rapeseed (test compound 0.1 mM); in series [2]) was 0% in each case. In the series with rapeseed (0.1 mM, excessive water stress), the “mortality rate due to excessive water stress, result in words” value is recorded as “not suppressed”. For the same compound, the “leaf whitening due to intense light stress, result in words” value in series [2] (0.1 mM, intense light stress) is listed as “not suppressed”. For the same compound, the Leaf whitening rate in series [2] is recorded as 40%.
Take `C[N+](C)(C)[C@@H](Cc1c[nH]c(=S)[nH]1)C(=O)[O-]` [EGT, L-(+)-ergothioneine]: the “survival under drying stress, result in words” value in series [3] (EGT 1 mM, drying stress) was “all Arabidopsis thaliana plants survived”. Also, the Mortality rate in series [3] (test compound 1 mM (50 mL), drying stress Yes, water supply stopped 18 days) amounted to 0%; in series [1] (setting [4]), 25%; in series [1] (setting [5]), 0%; in the series with rapeseed (setting [6]) it was 25%; with rapeseed (setting [7]) it was 0%. Further, the “Environmental stress suppressing rate” value in series [3] (test compound 1 mM, drying stress Yes) is given as 100%; in series [1] (test compound 0.5 mM), 67%; in the series on rapeseed (test compound 0.1 mM), 58%; in series [2], 78%. This compound also showed a Leaf whitening rate in series [2] of 8%.
